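Five concentrations, 48 hours, 96-well plates. GI50 is the concentration that inhibits growth by half.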 Activity calls are given as the source filed them. Rule as the data show it: active = GI50 up to about 1.1 µM and inactive = higher.
What was measured:
Assay in all cases: inhibition of tumour cell growth, NCI panel, 48 h
[1] = tested on: BT-549
[2] = tested on: CAKI-1
[3] = tested on: CCRF-CEM
[4] = tested on: COLO 205
[5] = tested on: DU-145
[6] = tested on: HT-29
[7] = tested on: Hs-578T
[8] = tested on: K562
[9] = tested on: LOX IMVI
[10] = tested on: NCI-H522
[11] = tested on: OVCAR-4
[12] = tested on: OVCAR-5
[13] = tested on: PC-3
[14] = tested on: RPMI-8226
[15] = tested on: SF-295
[16] = tested on: SN12C
[17] = tested on: SNB-19
[18] = tested on: SW-620
[19] = tested on: UACC-257

Measured: GI50

O=C1N2CCC[C@H]2CS1(=O)=O
inactive: [1] 14.8 µM | [2] 5.73 µM | [3] 2.3 µM | [4] 12.2 µM | [5] 17.9 µM | [6] 28.5 µM | [7] 55.1 µM | [8] 5.62 µM | [9] 11.3 µM | [10] 5.66 µM | [11] 11.8 µM | [12] 36.9 µM | [13] 16.5 µM | [14] 2.77 µM | [15] 40.2 µM | [16] 15.7 µM | [17] 35.9 µM | [18] 8 µM | [19] 18.7 µM

O=c1[nH]nc(Cc2ccccc2)n1/N=C/c1ccco1
inactive: [1] > 100 µM | [2] > 100 µM | [3] > 100 µM | [4] > 100 µM | [5] > 100 µM | [6] > 100 µM | [7] 10 µM | [8] > 100 µM | [9] > 100 µM | [11] > 100 µM | [12] 80 µM | [13] > 100 µM | [14] > 100 µM | [15] > 100 µM | [16] > 100 µM | [17] > 100 µM | [18] > 100 µM | [19] > 100 µM

O=[N+]([O-])c1cccc(/N=C2\c3ccccc3CN2c2cccc([N+](=O)[O-])c2)c1
inactive: [1] > 100 µM | [2] > 100 µM | [4] > 100 µM | [5] > 100 µM | [6] > 100 µM | [7] 37.8 µM | [8] > 100 µM | [9] > 100 µM | [10] > 100 µM | [11] 65.9 µM | [12] > 100 µM | [13] 72.8 µM | [14] > 100 µM | [15] > 100 µM | [16] > 100 µM | [17] > 100 µM | [18] > 100 µM | [19] > 100 µM

CCOC(=O)c1nnsc1NN=C(C)C
inactive: [1] > 100 µM | [2] > 100 µM | [4] > 100 µM | [5] > 100 µM | [6] > 100 µM | [7] > 100 µM | [8] > 100 µM | [9] > 100 µM | [10] > 100 µM | [11] > 100 µM | [12] > 100 µM | [13] > 100 µM | [14] > 100 µM | [15] > 100 µM | [16] > 100 µM | [18] > 100 µM | [19] > 100 µM
